Data on twelve compounds can be found in US4999363A, “Tricyclic compounds” (priority 1988, dated 1991).

Bounds are passed on as bounds.

Data set [1] relates to thrombus formation on cotton thread. The data set can be described thus: Antithrombotic activity: thrombus formation on cotton thread in extracorporeal circulation path. It counts as in vivo, Wistar male rats. As to conditions: oral, rat, 2 hours prior, mean ± standard error, control 25.9 ± 1.2. How it is done: Effect of a test compound on thrombus formation on cotton thread which was kept in an extracorporeal circulation path for the artery and vein in anesthesized rats was examined in a manner similar to the method of Smith et al. [Br. J. Pharmacol., 77, 29 (1982)].
Wistar male rats weighing 250 to 400 g were anesthesized by intraperitoneal administration of sodium pentobarbital at a dose of 30 mg/kg and an extracorporeal circulation path made of a polyethylene tube having a length of 30 cm extending from the right carotid artery to the left jugular vein was installed. Cotton thread (No. 30) having a length of 5.5 cm was inserted into the circulation path and a weight of thrombus formed on the cotton thread during blood perfusion for 15 minutes was measured. Similar operations were performed twice and the total weight of thrombus formed by the two blood perfusions was shown as the weight of thrombus. […]

Data set [2] has as its system TXA2 biosynthesis. Kind of data set: TXA2 biosynthesis inhibitory test (bovine platelet microsome, TXB2 by radioimmunoassay). As to conditions: in 10 μM. It counts as biochemical. How it is done: TXA2 BIOSYNTHESIS INHIBITORY TEST
After a mixture of 70 μl (40 μg of protein, 100 mM Tris-hydrochloridebuffer, pH 7.4) of bovine platelet microsome and 10 μl (10% methanol-containing 100 mM Tris-hydrochloride buffer) of a test compound solution was settled at 0° C. for 5 minutes, 20 μl of prostaglandin H2 solution (0.1 nmol, in Tris-hydrochloride buffer described above containing 20% acetone) as substrate was added to the mixture. Five minutes after, 2.9 ml of stopping solution [100 mM, Trishydrochloride buffer containing 0.1 μM of OKY-1581; Tromb. Res. 23, 145 (1981)] was added to stop the reaction.
TXA2 was unstable in the buffer solution, and nonenzymatically converted to TXB2. An amount of thromboxane B2 (TXB2) formed in the reaction solution was determined by radioimmunoassay [F. A. Fitzpatrick et al., Methods in Enzymology, 86, 286 (1982)]. An inhibition rate of the test compound was calculated according to the following equation. [formula]
The amount of TXB2 formed in control refers to a value obtained when the same reaction was carried out, using a solvent containing no test compound.
The amount of TXB2 formed in blank refers to a value obtained when the reaction was carried out in the system in which the stopping solution was added prior to adding substrate.

Data set [3] deals with dd strain male mice. Kind of data set: Acute toxicity test (MLD, mortality for seven days). It counts as in vivo. Particulars: minimum lethal dose, 7 days; for Acute Toxicity (MLD) ip: intraperitoneal. As for the experimental part: Using three dd strain male mice weighing 20±1 g, a test compound was orally (po; 300 mg/kg) or intraperitoneally (ip; 100 mg/kg) administered. MLD (the minimum lethal dose) was determined by observing the mortality for seven days after administration.

Data set [4] concerns the target T1, TXA2 /prostaglandin H2 receptor (Cavia porcellus, UniProt A0A286Y4I8).
T1 construct: platelet rich plasma (PRP) was obtained; endogenous in cells; host or cells: guinea pig (Hartley) platelets in platelet rich plasma
T1 sequence (A0A286Y4I8 1-347): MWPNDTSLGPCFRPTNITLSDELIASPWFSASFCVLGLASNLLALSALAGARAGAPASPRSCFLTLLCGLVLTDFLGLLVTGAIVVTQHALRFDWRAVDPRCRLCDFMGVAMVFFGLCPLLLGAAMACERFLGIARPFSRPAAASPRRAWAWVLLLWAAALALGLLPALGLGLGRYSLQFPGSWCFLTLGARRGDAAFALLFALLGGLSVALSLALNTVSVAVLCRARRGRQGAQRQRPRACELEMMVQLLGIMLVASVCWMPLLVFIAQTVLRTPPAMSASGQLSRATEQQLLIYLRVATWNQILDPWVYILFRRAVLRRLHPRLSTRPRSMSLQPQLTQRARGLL
Kind of data set: Anti-aggregatory effect: inhibition of platelet aggregation induced by U-46619 (TXA2-antagonizing action). It counts as cell-based, guinea pig (Hartley strain). Particulars: minimum concentration inhibiting aggregation by 30% or more; U-46619 0.5-1 μM; guinea pig PRP. As for the experimental part: TEST ON ANTI A[…] (TXA2 -AN[…])
Using guinea pig platelet, influence of the compounds on platelet aggregation induced by U-46619 (9,11-dideoxy-9α,11a-methanoepoxyprostaglandin F2α; manufactured by Cayman Chemical Co., Ltd.) which was a TXA2 /prostaglandin H2 receptor stimulant was examined.
Male guinea pig (Hartley strain; body weight, 300 to 600 g) was anesthesized by intraperitoneal administration of sodium pentobarbital (30 mg/kg) and blood was collected from the descending aorta of the abdomen with a 1/10 volume of 3.8% trisodium citrate. By centrifugation (KC-70: manufactured by Kubota Co., Ltd.) at 800 rpm for 15 minutes, platelet rich plasma (PRP) was obtained, Platelet aggregation induced by U-46619 (0.5-1 μM) was determined by photometry [Born, G.V.R. et al., Nature (London), 194, 927-929 (1962)]. A test compound was pretreated for 3 minutes and the ability to inhibit aggregation was determined. The minimum concentration which inhibits platelet aggregation by 30% or more was defined as the minimum effective concentration (MEC) of the test compound.

As for `O=C(O)COc1ccc(CCNS(=O)(=O)c2ccccc2)cc1` [BM13177], the “Weight of Thrombus” value is on record as 24.8 ± 1.8 mg in data set [1] (30 mg/kg) and 18.9 ± 1.8 mg in data set [1] (100 mg/kg, **P < 0.01).

As to `O=C(O)Cc1ccc(CCNS(=O)(=O)c2ccc(Cl)cc2)cc1` [BM13505, reference compound], the “TXA2 Biosynthesis Inhibitory Activity Inhibition Rate” value in data set [2] was determined as 8%. Further, in data set [3], the “Acute Toxicity (MLD) ip” value is on record as above 100 mg/kg and the “Acute Toxicity (MLD) po” value is on record as above 300 mg/kg. Moreover, the “TXA2 Antagonizing Activity (MEC)” value in data set [4] was determined as 0.1 µg/mL.

For the compound `O=C(O)c1ccc2c(c1)C(NCc1cccnc1)c1ccccc1CO2` (stereo not drawn) [Compound 9c, 11-[(3-Pyridyl)methyl]amino-6,11-dihydrodibenz[b,e]oxepin-2-carboxylic acid], the “TXA2 Biosynthesis Inhibitory Activity Inhibition Rate” value in data set [2] was 100%. In addition, in data set [3], the “Acute Toxicity (MLD) ip” value is on record as above 100 mg/kg and the “Acute Toxicity (MLD) po” value is reported as above 300 mg/kg. The “TXA2 Antagonizing Activity (MEC)” value in data set [4] was 30 µg/mL.

In the case of `O=C(O)c1ccc2c(c1)C(SCc1cccnc1)c1ccccc1CO2` (stereo not drawn) [Compound 14b, 11-[(3-Pyridyl)methyl]thio-6,11-dihydrodibenz[b,e]oxepin-2-carboxylic acid], the “TXA2 Biosynthesis Inhibitory Activity Inhibition Rate” value in data set [2] is recorded as 100%. Moreover, in data set [3], the “Acute Toxicity (MLD) ip” value is on record as above 100 mg/kg and the “Acute Toxicity (MLD) po” value is reported as above 300 mg/kg. Also, the “TXA2 Antagonizing Activity (MEC)” value in data set [4] amounted to 3 µg/mL.

For the compound `O=C(O)c1ccc2c(c1)C(=NCc1cccnc1)c1ccccc1CO2` [Compound 25b, 11-[(3-Pyridyl)methyl]imino-6,11-dihydrodibenz[b,e]oxepin-2-carboxylic acid], the “TXA2 Biosynthesis Inhibitory Activity Inhibition Rate” value in data set [2] is given as 100%. Further, in data set [3], the “Acute Toxicity (MLD) ip” value is on record as above 100 mg/kg and the “Acute Toxicity (MLD) po” value is above 300 mg/kg. Also, the “TXA2 Antagonizing Activity (MEC)” value in data set [4] stood at 1 µg/mL.

`O=C(O)c1ccc2c(c1)/C(=C/Cn1ccnc1)c1ccccc1CO2` [Compound E-37b', (E)-11-[2-(1-imidazolyl)ethylidene]-6,11-dihydrodibenz[b,e]oxepin-2-carboxylic acid 0.2 hydrate]: the “TXA2 Biosynthesis Inhibitory Activity Inhibition Rate” value in data set [2] worked out at 94%. For the same compound, in data set [3], the “Acute Toxicity (MLD) ip” value is above 100 mg/kg and the “Acute Toxicity (MLD) po” value is on record as above 300 mg/kg. The “TXA2 Antagonizing Activity (MEC)” value in data set [4] stood at 3 µg/mL.

On to `COc1ccc2c(c1)ncn2C/C=C1\c2ccccc2COc2ccc(C(=O)O)cc21` [Compound E-61b, (E)-11-[2-(5-Methoxy-1-benzimidazolyl)ethylidene]-6,11-dihydrodibenz[b,e]oxepin-2-carboxylic acid], for which, in data set [2], the “TXA2 Biosynthesis Inhibitory Activity Inhibition Rate” value is listed as 1%. Moreover, the “TXA2 Antagonizing Activity (MEC)” value in data set [4] was 0.1 µg/mL.

For the compound `COc1ccc2ncn(C/C=C3\c4ccccc4COc4ccc(C(=O)O)cc43)c2c1` [Compound E-62b, (E)-11-[2-(6-Methoxy-1-benzimidazolyl)ethylidene]-6,11-dihydrodibenz[b,e]oxepin-2-carboxylic acid], the “TXA2 Biosynthesis Inhibitory Activity Inhibition Rate” value in data set [2] was 11%. In data set [4], the “TXA2 Antagonizing Activity (MEC)” value stood at 1 µg/mL.

As for `COc1cc2ncn(C/C=C3\c4ccccc4COc4ccc(C(=O)O)cc43)c2cc1OC` [Compound E-101b, (E)-11-[2-(5,6-Dimethoxy-1-benzimidazolyl)ethylidene]-6,11-dihydrodibenz[b,e]oxepin-2-carboxylic acid], the “TXA2 Biosynthesis Inhibitory Activity Inhibition Rate” value in data set [2] was found to be 17%. Besides, in data set [3], the “Acute Toxicity (MLD) ip” value is on record as above 100 mg/kg and the “Acute Toxicity (MLD) po” value is above 300 mg/kg. The “TXA2 Antagonizing Activity (MEC)” value in data set [4] amounted to 0.3 µg/mL.

On to `Cn1cnnc1SC/C=C1\c2ccccc2COc2ccc(C(=O)O)cc21` [Compound E-156b, (E)-11-[2-[(4-Methyl-4H-1,2,4-triazol-3-yl)thio]ethylidene]-6,11-dihydrodibenz[b,e]oxepin-2-carboxylic acid], for which, in data set [2], the “TXA2 Biosynthesis Inhibitory Activity Inhibition Rate” value is recorded as -10%. For the same compound, in data set [3], the “Acute Toxicity (MLD) ip” value is above 100 mg/kg and the “Acute Toxicity (MLD) po” value was above 300 mg/kg. Further, the “TXA2 Antagonizing Activity (MEC)” value in data set [4] was 1.0 µg/mL.

For `CN(C)CC/C=C1/c2ccccc2COc2ccc(CC(=O)O)cc21` [KW 4679, reference compound], the “TXA2 Biosynthesis Inhibitory Activity Inhibition Rate” value in data set [2] was 1%. In addition, in data set [3], the “Acute Toxicity (MLD) ip” value was above 100 mg/kg and the “Acute Toxicity (MLD) po” value is on record as above 300 mg/kg. Further, in data set [4], the “TXA2 Antagonizing Activity (MEC)” value turned out to be 30 µg/mL.

For `C/C(=C\c1ccc(Cc2cccnc2)cc1)C(=O)O` [OKY 1581, reference compound], the “TXA2 Biosynthesis Inhibitory Activity Inhibition Rate” value in data set [2] is 100%. In addition, in data set [3], the “Acute Toxicity (MLD) ip” value is reported as above 100 mg/kg and the “Acute Toxicity (MLD) po” value is above 300 mg/kg. The “TXA2 Antagonizing Activity (MEC)” value in data set [4] was found to be 30 µg/mL.
